{
  "source": "paper PMC7734281",
  "about": "“Functionalized Oxoindolin Hydrazine Carbothioamide Derivatives as Highly Potent Inhibitors of Nucleoside Triphosphate Diphosphohydrolases” (Frontiers in Pharmacology, 2020)",
  "key": {"[1]": {"test_system": "mice pancreatic islets", "assay": "Glucose stimulated insulin secretion in isolated mice islets (ELISA)", "assay_type": "cell-based, BALB/c mice", "settings": "16.7 mM glucose; for Effect on glucose stimulated insulin secretion: compound 200 µM, 1 h, 37°C", "experimental": "Six to eight week old BALB/c mice, weighing 30–40 g, were used in the study. These mice were obtained from the animal house of COMSATS University Islamabad, Abbottabad Campus and placed under standard temperature (25 ± 2°C) and humidity (50–55%) conditions with an alternate 12-h light/dark cycle. All the experimental animals were provided with a continuous supply of food and water. The animals were handled according to internationally accepted guidelines of animal care and use. Moreover, this study was reviewed and approved by Research Ethics Committee, Department of Pharmacy, COMSATS University Islamabad, Abbottabad Campus. (Protocol number: PHM.Eth./CS-M01-020-1609)\nThe islets were isolated from mice pancreas as previously described, by a process involving collagenase digestion ([Hameed et al., 2018]). Briefly, mice were anesthetized with sodium thiopental (30 mg kg) and sacrificed by cervical dislocation to block the flow of blood. Immediately, mice were transferred to biological hood and their abdominal cavity was opened completely by making an incision on abdomen. In order to stop the bile flow toward duodenum, ampulla was located and clamped under dissection microscope. Then, distention of pancreas was carried out by injecting 3 ml of collagenase solution (1 mg/ml) through common bile duct. The distended pancreas was removed as a whole, transferred to a 50 ml tube and digested in collagenase solution at 37°C. After 15 min, digestion was stopped by placing the tube on ice and 20 ml of Hank’s Balanced Salt Solution (HBSS) was added to it. Thus the digested islets were washed with HBSS (two to three times) by centrifugation (1,000 rpm) for 1 min at 4°C. Finally, islets were purified by passing through a cell strainer (70 µm) and isolated manually (by hand picking) under stereomicroscope (Euromex, Arnhem, Netherlands). All the purification and isolation procedures were carried out in HBSS, containing no magnesium, calcium and phenol red.\nKrebs-Ringer bicarbonate buffer (KRBB) was used as an incubation medium for islets and was composed of NaCl (118 mM), KCl (4.7 mM), CaCl2 (1.9 mM), MgSO4 (1.2 mM), NaHCO3 (25 mM), 4-(2-hydroxyethyl)-1-piperazineethanesulfonic acid (HEPES, 10 mM) and bovine serum albumin (0.1%). The pH of KRBB was maintained at 7.4. The isolated islets were size-matched and pre-incubated (3 islets/tube) for 45 min at 37°C in KRBB, supplemented with 3 mM glucose. Thereafter, incubation medium was replaced with fresh KRBB (containing 16.7 mM glucose) and islets were incubated for 60 min at 37°C with or without test substance(s). After incubation, supernatant was collected and stored at −40°C until further use. Finally, collected samples were properly diluted and insulin secretion was estimated with ultra-sensitive mouse insulin ELISA kit (Crystal Chem Inc., Downers Grove, United States) according to the manufacturer’s instructions. The absorbance was measured at 450 nm and insulin secretion was normalized for number of islets used. ([Hameed et al., 2018])."}, "[2]": {"target": "T1, h-NTPDase2 (Homo sapiens, UniProt Q9Y5L3)", "T1 construct": "made in house; host or cells: COS-7 cells, transient transfection; crude protein extract after sonication", "T1 sequence (Q9Y5L3 1-495)": "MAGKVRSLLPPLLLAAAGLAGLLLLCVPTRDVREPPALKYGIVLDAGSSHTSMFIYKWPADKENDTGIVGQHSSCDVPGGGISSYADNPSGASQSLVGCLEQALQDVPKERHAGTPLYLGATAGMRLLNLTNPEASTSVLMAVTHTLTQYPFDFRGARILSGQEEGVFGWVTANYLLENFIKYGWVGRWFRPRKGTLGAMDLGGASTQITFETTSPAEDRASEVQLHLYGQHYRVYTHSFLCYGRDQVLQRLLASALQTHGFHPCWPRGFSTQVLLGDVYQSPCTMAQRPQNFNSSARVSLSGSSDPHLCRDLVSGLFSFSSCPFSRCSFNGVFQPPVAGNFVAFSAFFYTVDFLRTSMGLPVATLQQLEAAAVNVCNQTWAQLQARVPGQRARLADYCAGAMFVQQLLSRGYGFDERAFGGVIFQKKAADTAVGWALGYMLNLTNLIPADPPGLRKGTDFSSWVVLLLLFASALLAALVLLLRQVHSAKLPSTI", "assay": "h-NTPDase2 inhibition, malachite green assay", "assay_type": "biochemical", "settings": "Lineweaver-Burk plot"}, "[3]": {"test_system": "ectonucleotidase activity in islets homogenate", "assay": "Ectonucleotidase activity of islet homogenate (malachite green, Pi release)", "assay_type": "biochemical, mice", "settings": "for Effect on ectonucleotidase activity in islets homogenate: compound 100 µM, 100 µM ATP as substrate, versus control", "experimental": "Islets were isolated and homogenized, according to the previously reported method ([Hedeskov and Capito, 1974]). After isolation, islets were washed thrice with HBSS and suspended in an ice-cold buffer containing sucrose (0.25 M), ethylenediaminetetraacetic acid (EDTA,1 mM) and tris-HCl (5 mM), maintained at pH 7.0. The resulting suspension was diluted with assay buffer, composed of tris-HCl (50 mM) and CaCl2 (5 mM). Afterward, these islets were sonicated for 30 s leading to disruption of islets and formation of a homogenate. Cellular debris was removed by centrifugation at 15,000 rpm for 10 min (4°C). The supernatant was collected and stored on ice. Protein concentration was estimated by Bradford method, using bovine serum albumin as reference standard ([Bradford, 1976]).\nIn order to determine the effect of compounds on ectonucleotidase activity in mice islets, standard curve based procedure was used where KH2PO4 was used as a standard. A stock solution of KH2PO4 (1 mM) was prepared in assay buffer that was used to prepare the working solutions of lower concentrations (0–100 µm). A standard curve was generated by incubating increasing concentration of KH2PO4 with buffer and malachite green reagent.\nThe assay was carried out in tris-buffer (pH 7.4) containing tris-HCl (50 mM) and CaCl2 (5 mM), as previously described ([Lavoie et al., 2010]). Compounds were dissolved in DMSO (10%) and tested at a concentration of 100 µM. The assay was started by adding 10 µl of test compound solution to 56 µl of assay buffer, followed by the addition of 6 µl of homogenate (i.e., 3 µg of protein). The mixture was incubated at 37°C for 10 min and then 10 µl of ATP (100 µM) was added to start the reaction. Reaction mixture was again placed in incubator at 37°C for 15 min and then reaction was stopped by adding 100 µl of trichloroacetic acid (10%). […] Finally, samples were mixed with malachite green reagent in an appropriate proportion and released Pi was determined by using standard curve. […] All the experiments were carried out in triplicate and enzyme activity was expressed as […] of Pi/min/mg of protein."}, "[4]": {"test_system": "mice pancreatic islets", "assay": "Glucose stimulated insulin secretion in isolated mice islets (ELISA)", "assay_type": "cell-based, BALB/c mice", "settings": "basal glucose 3 mM"}},
  "note": "Entries after “also recorded” stand apart in the source; their conditions may differ.",
  "data": [
    {"smiles": "O=C1Nc2ccccc2/C1=N/NC(=S)Nc1ccc(Cl)cc1", "note": "[8c, (Z)-N-(4-chlorophenyl)-2-(2-oxoindolin-3-ylidene)hydrazine-1-carbothioamide]", "values": [
      {"measurement": "Effect on glucose stimulated insulin secretion", "setting": "[1]", "value": "no significant effect on insulin secretion; also recorded: did not show any significant effect on insulin secretion"}
    ]},
    {"smiles": "COc1ccc(OC)c(NC(=S)N/N=C2\\C(=O)Nc3ccccc32)c1", "note": "[8j, (Z)-N-(2,5-dimethoxyphenyl)-2-(2-oxoindolin-3-ylidene)hydrazine-1-carbothioamide]", "values": [
      {"measurement": "Mode of inhibition of h-NTPDase2", "setting": "[2]", "value": "competitive"}
    ]},
    {"smiles": "CCNC(=S)N/N=C1\\C(=O)Nc2ccccc21", "note": "[8m, (Z)-N-ethyl-2-(2-oxoindolin-3-ylidene)hydrazine-1-carbothioamide]", "values": [
      {"measurement": "Dose-dependent effect on insulin secretion", "setting": "[1]; 10–200 µM", "value": "dose dependent increase in insulin release; also recorded: dose dependent increase in insulin secretion"},
      {"measurement": "Effect on glucose stimulated insulin secretion", "setting": "[1]", "value": "potently stimulated insulin secretion; also recorded: significant increase in glucose stimulated insulin secretion"},
      {"measurement": "Effect on ectonucleotidase activity in islets homogenate", "setting": "[3]", "value": "significantly decreased the ectonucleotidase activity; also recorded: significantly reduced the enzyme activity; also recorded: significant reduction in ectonucleotidase activity; also recorded: significantly reduced ectonucleotidase activity"},
      {"measurement": "Dose response of ectonucleotidase activity in islet homogenate", "setting": "[3]; different concentrations, 100 µM ATP, Pi release", "value": "dose dependent decrease in enzyme activity"},
      {"measurement": "Effect on insulin secretion at basal glucose level", "setting": "[4]", "value": "no effect on insulin secretion; also recorded: did not produce any significant effect"}
    ]},
    {"smiles": "Cc1ccc(C(=O)Nc2ccc(S(=O)(=O)O)c3cc(S(=O)(=O)O)cc(S(=O)(=O)O)c23)cc1NC(=O)c1cccc(NC(=O)Nc2cccc(C(=O)Nc3cc(C(=O)Nc4ccc(S(=O)(=O)O)c5cc(S(=O)(=O)O)cc(S(=O)(=O)O)c45)ccc3C)c2)c1", "note": "[Suramin, reference compound]", "values": [
      {"measurement": "Effect on glucose stimulated insulin secretion", "setting": "[1]", "value": "Neither suramin nor isatin had any significant effect"},
      {"measurement": "Effect on ectonucleotidase activity in islets homogenate", "setting": "[3]", "value": "significantly reduced the enzyme activity"}
    ]}
  ]
}
